Molecules are shown by their SMILES.

Assay [1] addresses T1, wild-type BTK (Homo sapiens, UniProt Q06187). In words: BTK in vitro activity assay (ADP-Glo, poly-Glu:Tyr phosphorylation, TCEP). The following applies: for remaining activity at 0.1 µM: read-out: Remaining BTK activity (%); for inhibition at 0.1 µM: read-out: inhibition of BTK activity. In general terms: ADP-Glo first removes unused ATP, then detects ADP through luciferase.

Assay [2] addresses T1, wild-type BTK. In words: BTK in vitro activity assay in the presence of DTT vs TCEP (Figure S6). The class given is biochemical. The following applies: 100 nM compound; 2 mM DTT instead of TCEP.
Procedure: Left: activity of WT BTK in the presence of DTT (2 mM) or TCEP (1 mM)
(mean±range of duplicate determinations). Right: effect of compounds on wild type BTK
activity in the presence of TCEP or DTT. Compounds (100 nM) were pre-incubated with BTK
in the presence of TCEP or DTT for 10 min before initiating the reaction by addition of ATP.
Graphs show relative BTK kinase activity (mean±range from 2-4 determinations) relative to
DMSO control (i.e. no compound, set to 100%).

T1 sequence (Q06187 whole entry): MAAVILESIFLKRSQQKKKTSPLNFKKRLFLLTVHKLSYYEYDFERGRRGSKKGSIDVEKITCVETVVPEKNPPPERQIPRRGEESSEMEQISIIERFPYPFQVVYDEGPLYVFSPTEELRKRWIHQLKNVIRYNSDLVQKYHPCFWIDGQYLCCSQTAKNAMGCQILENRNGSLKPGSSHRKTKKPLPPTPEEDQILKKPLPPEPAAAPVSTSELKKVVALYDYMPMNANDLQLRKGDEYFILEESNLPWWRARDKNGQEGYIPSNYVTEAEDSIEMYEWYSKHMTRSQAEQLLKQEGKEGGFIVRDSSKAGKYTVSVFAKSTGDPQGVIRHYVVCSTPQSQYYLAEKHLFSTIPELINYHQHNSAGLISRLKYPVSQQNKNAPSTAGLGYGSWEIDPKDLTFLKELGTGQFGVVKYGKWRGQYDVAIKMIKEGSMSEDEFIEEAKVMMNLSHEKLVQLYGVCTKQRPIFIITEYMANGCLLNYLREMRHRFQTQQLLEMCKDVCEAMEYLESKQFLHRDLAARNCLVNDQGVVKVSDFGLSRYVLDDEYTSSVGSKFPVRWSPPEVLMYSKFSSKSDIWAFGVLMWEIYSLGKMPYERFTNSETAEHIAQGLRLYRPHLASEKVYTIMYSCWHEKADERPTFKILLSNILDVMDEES

`CS(=O)(=O)c1nccc(C(=O)N2CCCC(n3nc(-c4ccc(Oc5ccccc5)cc4)c4c(N)ncnc43)C2)n1` (stereo in doubt) [Compound 5a, (R)-(3-(4-Amino-3-(4-phenoxyphenyl)-1H-pyrazolo[3,4-d]pyrimidin-1-yl)piperidin-1-yl)(2-(methylsulfonyl)pyrimidin-4-yl)methanone]: in assay [1], the remaining activity – broadly, the signal under treatment as a percentage of the control signal – at 0.1 µM was found to be 17 ± 1% and the inhibition (commonly the share of the control response that was lost under treatment) at 0.1 µM lay within 80 to 90%.
Turning to `CS(=O)(=O)c1ncc(Cl)c(C(=O)N2CCCC(n3nc(-c4ccc(Oc5ccccc5)cc4)c4c(N)ncnc43)C2)n1` (stereo in doubt) [Compound 5d, (R)-(3-(4-Amino-3-(4-phenoxyphenyl)-1H-pyrazolo[3,4-d]pyrimidin-1-yl)piperidin-1-yl)(5-chloro-2-(methylsulfonyl)pyrimidin-4-yl)methanone], in assay [1], the remaining activity at 0.1 µM was found to be 17 ± 2% and the inhibition at 0.1 µM lay within 80 to 90%. Besides, in assay [2], the “BTK inhibition in the presence of DTT” value is reported as “almost no inhibition”.
For `CS(=O)(=O)c1ncc(C(=O)N2CCCC(n3nc(-c4ccc(Oc5ccccc5)cc4)c4c(N)ncnc43)C2)cn1` (stereo in doubt) [Compound 5e, (R)-(3-(4-Amino-3-(4-phenoxyphenyl)-1H-pyrazolo[3,4-d]pyrimidin-1-yl)piperidin-1-yl)(2-(methylsulfonyl)pyrimidin-5-yl)methanone], in assay [1], the remaining activity at 0.1 µM turned out to be 9 ± 2% and the inhibition at 0.1 µM was in the range of 80 to 90%.
`CCCCS(=O)(=O)c1ncc(C(=O)N2CCCC(n3nc(-c4ccc(Oc5ccccc5)cc4)c4c(N)ncnc43)C2)cn1` (stereo in doubt) [Compound 5f, (R)-(3-(4-Amino-3-(4-phenoxyphenyl)-1H-pyrazolo[3,4-d]pyrimidin-1-yl)piperidin-1-yl)(2-(butylsulfonyl)pyrimidin-5-yl)methanone]: in assay [1], the remaining activity at 0.1 µM amounted to 38 ± 2% and the inhibition at 0.1 µM lay in the range of 40 to 60%.
The like results for `Nc1ncnc2c1c(-c1ccc(Oc3ccccc3)cc1)nn2C1CCCN(C(=O)c2cnc(S(=O)(=O)c3ccccc3)nc2)C1` (stereo in doubt) [Compound 5g, (R)-(3-(4-Amino-3-(4-phenoxyphenyl)-1H-pyrazolo[3,4-d]pyrimidin-1-yl)piperidin-1-yl)(2-(phenylsulfonyl)pyrimidin-5-yl)methanone] were, in that order, 35 ± 1% and 40 to 60%.
For `CSc1nccc(C(=O)N2CCC[C@@H](n3nc(-c4ccc(Oc5ccccc5)cc4)c4c(N)ncnc43)C2)n1` [Compound 4a, (R)-(3-(4-Amino-3-(4-phenoxyphenyl)-1H-pyrazolo[3,4-d]pyrimidin-1-yl)piperidin-1-yl)(2-(methylthio)pyrimidin-4-yl)methanone], in assay [1], the remaining activity at 0.1 µM is 84 ± 8%.
Still for that read-out and setting: next, `CCCCSc1nccc(C(=O)N2CCC[C@@H](n3nc(-c4ccc(Oc5ccccc5)cc4)c4c(N)ncnc43)C2)n1` [Compound 4b, (R)-(3-(4-Amino-3-(4-phenoxyphenyl)-1H-pyrazolo[3,4-d]pyrimidin-1-yl)piperidin-1-yl)(2-(butylthio)pyrimidin-4-yl)methanone]: 82 ± 1%.
On the same count and under the same terms, next, `Nc1ncnc2c1c(-c1ccc(Oc3ccccc3)cc1)nn2[C@@H]1CCCN(C(=O)c2ccnc(Sc3ccccc3)n2)C1` [Compound 4c, (R)-(3-(4-Amino-3-(4-phenoxyphenyl)-1H-pyrazolo[3,4-d]pyrimidin-1-yl)piperidin-1-yl)(2-(phenylthio)pyrimidin-4-yl)methanone]: 98 ± 5%.
On the same count and under the same terms, under `CSc1ncc(Cl)c(C(=O)N2CCC[C@@H](n3nc(-c4ccc(Oc5ccccc5)cc4)c4c(N)ncnc43)C2)n1` [Compound 4d, (R)-(3-(4-Amino-3-(4-phenoxyphenyl)-1H-pyrazolo[3,4-d]pyrimidin-1-yl)piperidin-1-yl)(5-chloro-2-(methylthio)pyrimidin-4-yl)methanone] stands 100 ± 6%; under `CSc1ncc(C(=O)N2CCC[C@@H](n3nc(-c4ccc(Oc5ccccc5)cc4)c4c(N)ncnc43)C2)cn1` [Compound 4e, (R)-(3-(4-Amino-3-(4-phenoxyphenyl)-1H-pyrazolo[3,4-d]pyrimidin-1-yl)piperidin-1-yl)(2-(methylthio)pyrimidin-5-yl)methanone], 83 ± 9%.
Turning to `CCCCSc1ncc(C(=O)N2CCC[C@@H](n3nc(-c4ccc(Oc5ccccc5)cc4)c4c(N)ncnc43)C2)cn1` [Compound 4f, (R)-(3-(4-Amino-3-(4-phenoxyphenyl)-1H-pyrazolo[3,4-d]pyrimidin-1-yl)piperidin-1-yl)(2-(butylthio)pyrimidin-5-yl)methanone], the remaining activity at 0.1 µM in assay [1] was determined as 84 ± 5%.
Take `Nc1ncnc2c1c(-c1ccc(Oc3ccccc3)cc1)nn2[C@@H]1CCCN(C(=O)c2cnc(Sc3ccccc3)nc2)C1` [Compound 4g, (R)-(3-(4-Amino-3-(4-phenoxyphenyl)-1H-pyrazolo[3,4-d]pyrimidin-1-yl)piperidin-1-yl)(2-(phenylthio)pyrimidin-5-yl)methanone]: the remaining activity at 0.1 µM in assay [1] came to 100 ± 6%.
Turning to `CCCCS(=O)(=O)c1nccc(C(=O)N2CCC[C@H](n3nc(-c4ccc(Oc5ccccc5)cc4)c4c(N)ncnc43)C2)n1` [Compound 5b, (3-(4-Amino-3-(4-phenoxyphenyl)-1H-pyrazolo[3,4-d]pyrimidin-1-yl)piperidin-1-yl)(2-(butylsulfonyl)pyrimidin-4-yl)methanone], in assay [1], the remaining activity at 0.1 µM was 58 ± 3% and the inhibition at 0.1 µM fell in the range of 40 to 60%.
Take `Nc1ncnc2c1c(-c1ccc(Oc3ccccc3)cc1)nn2[C@H]1CCCN(C(=O)c2ccnc(S(=O)(=O)c3ccccc3)n2)C1` [Compound 5c, (3-(4-Amino-3-(4-phenoxyphenyl)-1H-pyrazolo[3,4-d]pyrimidin-1-yl)piperidin-1-yl)(2-(phenylsulfonyl)pyrimidin-4-yl)methanone]: in assay [1], the remaining activity at 0.1 µM worked out at 40 ± 1% and the inhibition at 0.1 µM was 40 to 60%.
For the molecule `CSc1ncc(C)c(N2CCCC(n3nc(-c4ccc(Oc5ccccc5)cc4)c4c(N)ncnc43)C2)n1` (stereo not drawn) [Compound 7a, 1-(1-(5-Methyl-2-(methylthio)pyrimidin-4-yl)piperidin-3-yl)-3-(4-phenoxyphenyl)-1H-pyrazolo[3,4-d]pyrimidin-4-amine], the remaining activity at 0.1 µM in assay [1] came out at 40 ± 0.3%.
With `COC(=O)c1cnc(SC)nc1N1CCC[C@@H](n2nc(-c3ccc(Oc4ccccc4)cc3)c3c(N)ncnc32)C1` [Compound 7b, Methyl (R)-4-(3-(4-Amino-3-(4-phenoxyphenyl)-1H-pyrazolo[3,4-d]pyrimidin-1-yl)piperidin-1-yl)-2-(methylthio)pyrimidine-5-carboxylate], the remaining activity at 0.1 µM in assay [1] was determined as 76 ± 2%.
As to `CCOC(=O)c1cnc(SC)nc1N1CCC[C@@H](n2nc(-c3ccc(Oc4ccccc4)cc3)c3c(N)ncnc32)C1` [Compound 7c, Ethyl (R)-4-(3-(4-Amino-3-(4-phenoxyphenyl)-1H-pyrazolo[3,4-d]pyrimidin-1-yl)piperidin-1-yl)-2-(methylthio)pyrimidine-5-carboxylate], in assay [1], the remaining activity at 0.1 µM is 105 ± 4%.
The same measure, in the same setting: under `CNC(=O)c1cnc(SC)nc1N1CCCC(n2nc(-c3ccc(Oc4ccccc4)cc3)c3c(N)ncnc32)C1` (stereo not drawn) [Compound 7d, 4-(3-(4-Amino-3-(4-phenoxyphenyl)-1H-pyrazolo[3,4-d]pyrimidin-1-yl)piperidin-1-yl)-N-methyl-2-(methylthio)pyrimidine-5-carboxamide] stands 78 ± 2%; under `CSc1ncc(N2CCCC(n3nc(-c4ccc(Oc5ccccc5)cc4)c4c(N)ncnc43)C2)c(C)n1` (stereo not drawn) [Compound 7e, 1-(1-(4-Methyl-2-(methylthio)pyrimidin-5-yl)piperidin-3-yl)-3-(4-phenoxyphenyl)-1H-pyrazolo[3,4-d]pyrimidin-4-amine], 69 ± 2%; under `CS(=O)(=O)c1nccc(N2CCC[C@@H](n3nc(-c4ccc(Oc5ccccc5)cc4)c4c(N)ncnc43)C2)n1` [Compound 8e, (R)-1-(1-(2-(Methylsulfonyl)pyrimidin-4-yl)piperidin-3-yl)-3-(4-phenoxyphenyl)-1H-pyrazolo[3,4-d]pyrimidin-4-amine], 48 ± 0.3%.
Take `Cc1nc(S(C)(=O)=O)ncc1N1CCCC(n2nc(-c3ccc(Oc4ccccc4)cc3)c3c(N)ncnc32)C1` (stereo not drawn) [Compound 9a, 1-(1-(4-Methyl-2-(methylsulfonyl)pyrimidin-5-yl)piperidin-3-yl)-3-(4-phenoxyphenyl)-1H-pyrazolo[3,4-d]pyrimidin-4-amine]: the remaining activity at 0.1 µM in assay [1] was 80 ± 3%.
Regarding `CS(=O)(=O)c1ncc(N2CCC[C@@H](n3nc(-c4ccc(Oc5ccccc5)cc4)c4c(N)ncnc43)C2)cn1` [Compound 9b, (R)-1-(1-(2-(Methylsulfonyl)pyrimidin-5-yl)piperidin-3-yl)-3-(4-phenoxyphenyl)-1H-pyrazolo[3,4-d]pyrimidin-4-amine], the remaining activity at 0.1 µM in assay [1] was determined as 103 ± 5%.
On the same count and under the same terms, under `Nc1ncnc2c1c(-c1ccc(Oc3ccccc3)cc1)nn2[C@@H]1CCCN(C(=O)c2ccccc2)C1` [Compound 10, (R)-(3-(4-Amino-3-(4-phenoxyphenyl)-1H-pyrazolo[3,4-d]pyrimidin-1-yl)piperidin-1-yl)(phenyl)methanone] stands 100 ± 0.2%; under `Nc1ncnc2c1c(-c1ccc(Oc3ccccc3)cc1)nn2[C@@H]1CCCN(C(=O)c2ccncn2)C1` [Compound 12a, (R)-(3-(4-Amino-3-(4-phenoxyphenyl)-1H-pyrazolo[3,4-d]pyrimidin-1-yl)piperidin-1-yl)(pyrimidin-4-yl)methanone], 53 ± 2%; under `Nc1ncnc2c1c(-c1ccc(Oc3ccccc3)cc1)nn2[C@@H]1CCCN(C(=O)c2cncnc2)C1` [Compound 12b, (R)-(3-(4-Amino-3-(4-phenoxyphenyl)-1H-pyrazolo[3,4-d]pyrimidin-1-yl)piperidin-1-yl)(pyrimidin-5-yl)methanone], 83 ± 7%.

(Values after article PMC11345841, “Exploring 2-Sulfonylpyrimidine Warheads as Acrylamide Surrogates for Targeted Covalent Inhibition: A BTK Story” (Journal of Medicinal Chemistry, 2024).)
